Data: patent US12275707B2, “Modulators of mas-related g-protein receptor X2 and related products and methods” (Escient Pharmaceuticals, Inc., priority 2020, dated 2025)
pIC50: −log10 of the molar value.

Target: T1, human MRGPR X2 (Homo sapiens, UniProt Q96LB1)
T1 construct: expressed in transfected cells
T1 sequence (Q96LB1 1-330): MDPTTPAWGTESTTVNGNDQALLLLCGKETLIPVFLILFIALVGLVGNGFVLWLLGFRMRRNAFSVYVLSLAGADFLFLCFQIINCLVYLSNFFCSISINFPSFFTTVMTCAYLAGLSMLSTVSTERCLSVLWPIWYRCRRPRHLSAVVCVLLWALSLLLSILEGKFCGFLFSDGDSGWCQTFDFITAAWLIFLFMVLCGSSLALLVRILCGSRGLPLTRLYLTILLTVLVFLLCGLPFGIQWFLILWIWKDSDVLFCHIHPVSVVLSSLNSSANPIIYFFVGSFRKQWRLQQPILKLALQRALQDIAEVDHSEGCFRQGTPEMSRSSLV
Test: MRGPR X2 activity, IP-One Gq HTRF antagonist assay versus 0.3 μM Cortistatin-14
Type: cell-based
Conditions: CHO cells expressing human MRGPR X2; versus 0.3 μM Cortistatin-14 agonist; IP-1 HTRF; read-out: MRGPRX2 Antagonist Activity
Description: CHO cells stably transfected to express human MRGPR X2 were maintained in an incubator at 37° C. with 5% CO2 and grown in F12 (HAM) media with 10% fetal bovine serum (FBS), 1% Glutamax, 1% penicillin/streptomycin, 800 μg/mL Geneticin (G418), and 300 μg/mL Hygromycin B.
Cells were plated in a 384-well assay plate at 20,000 cells per well in 12 μL of Opti-MEM and kept in an incubator overnight. On the day of the assay, compounds solubilized at 10 mM in DMSO were added as a 10-point curve (30 μM final top concentration with 1:3 serial dilutions) using a Tecan D300E digital dispenser. Agonists were diluted in assay buffer (final concentrations of 5.7 mM Tris-HCl, 43 mM NaCl, 50 mM LiCl, pH=8) and 2 μL of the agonist Cortistatin-14 (CPC Scientific, catalog CORT-002) are added to each well. Final concentrations of agonists were 0.3 μM Cortistatin. Final concentrations of DMSO were kept consistent across the plate. Plates were incubated in the dark for 1 h at 37° C. and then for 1 h at room temperature. IP-1 standards and HTRF detection reagents were added according to the IP-One—Gq Kit purchased from Cisbio (part number 62IPAPEJ) and incubated in the dark for 1 h at room temperature. The plate was read on a Molecular Devices SpectraMax iD5 plate reader. The HTRF ratio was calculated from the raw data and graphed using GraphPad Prism to calculate an IC50 value for each compound.
The activity ranges are denoted as follows: “+++++” denotes antagonist activity<100 nM; “++++” denotes antagonist activity between 100 and 500 nM; “+++” denotes activity between 501 and 1000 nM; “++” denotes activity between 1001 and 2500 nM; and “+” denotes activity>2500 nM
In the case of O=C(N[C@@H]1CCC[C@H](Nc2cc(C(F)(F)F)nc3ccccc23)C1)c1cccc(N2CCCC2=O)c1 [Example 4-172], the pIC50 was 5.60 to 6.00. O=C(N[C@@H]1CCC[C@H](Nc2cc(C(F)(F)F)nc3ccccc23)C1)C1(c2cnccn2)CC1 (racemic) [Example 4-29] gave a pIC50 of 5.60 to 6.00. Work on O=C(CN1C(=O)COc2ccccc21)N[C@@H]1CCC[C@H](Nc2cc(C(F)(F)F)nc3ccccc23)C1 (racemic) [Example 4-100] yielded a pIC50 of 5.60 to 6.00. For Nc1ncc(C(=O)N[C@@H]2CCC[C@H](Nc3cc(C(F)(F)F)nc4ccc(Cl)cc34)C2)cn1 [Example 15, 2-amino-N-[(1R,3S)-3-{[6-chloro-2-(trifluoromethyl)quinolin-4-yl]amino}cyclohexyl]pyrimidine-5-carboxamide], the pIC50 was > 7.00. In the case of O=C(N[C@@H]1CCC[C@H](Nc2cc(C(F)(F)F)nc3ccc(Cl)cc23)C1)c1ccsn1 [Example 4-425], the pIC50 was > 7.00. With N#CCCn1ncc(C(=O)N[C@@H]2CCC[C@H](Nc3cc(C(F)(F)F)nc4ccc(Cl)cc34)C2)c1Cl [Example 4-420] the pIC50 was > 7.00. With O=C(N[C@@H]1CCC[C@H](Nc2cc(C(F)(F)F)nc3ccc(Cl)cc23)C1)c1ccn(CCF)c1 [Example 19, N-((1R,3S)-3-((6-chloro-2-(trifluoromethyl)quinolin-4-yl)amino)cyclohexyl)-1-(2-fluoroethyl)-1H-pyrrole-3-carboxamide] the pIC50 was > 7.00. With Cc1nc(N(C)C)ccc1C(=O)N[C@@H]1CCC[C@H](Nc2cc(C(F)(F)F)nc3ccccc23)C1 [Example 4-22] the pIC50 was 5.60 to 6.00. COc1ccc(COc2cc(C(=O)N[C@@H]3CCC[C@H](Nc4cc(C(F)(F)F)nc5ccccc45)C3)on2)cc1 (racemic) [Example 4-35] showed a pIC50 of 5.60 to 6.00. With CN(C)c1ncc(C(=O)N[C@@H]2CCC[C@H](Nc3cc(C(F)(F)F)nc4ccc(Cl)cc34)C2)s1 [Example 4-422] the pIC50 was > 7.00. In the case of O=C(N[C@@H]1CCC[C@H](Nc2nc(C(F)(F)F)nc3ccccc23)C1)c1ccc(F)cc1 [Example 3, 4-fluoro-N-[(1R,3S)-3-[[2-(trifluoromethyl)quinazolin-4-yl]amino]cyclohexyl]benzamide], the pIC50 was 6.00 to 6.30. In the case of CCS(=O)(=O)Nc1cccc(C(=O)N[C@@H]2CCC[C@H](Nc3cc(C(F)(F)F)nc4ccc(Cl)cc34)C2)c1 [Example 4-241], the pIC50 was > 7.00. N#Cc1ccccc1C(=O)N[C@@H]1CCC[C@H](Nc2cc(C(F)(F)F)nc3ccccc23)C1 [Example 3-6] showed a pIC50 of 6.30 to 7.00. In the case of COc1ccc(C(=O)N[C@@H]2CCC[C@H](Nc3cc(C(F)(F)F)nc4ccc(Cl)cc34)C2)cc1 [Example 1, N-((1R,3S)-3-((6-chloro-2-(trifluoromethyl)quinolin-4-yl)amino)cyclohexyl)-4-methoxybenzamide], the pIC50 was > 7.00. In the case of O=C(N[C@@H]1CCC[C@H](Nc2cc(C(F)(F)F)nc3ccc(Cl)cc23)C1)c1cnn(C(F)F)c1 [Example 4-399], the pIC50 was > 7.00. With CN(C)c1ccc(C(=O)N[C@@H]2CCC[C@H](Nc3cc(C(F)(F)F)nc4ccc(F)cc34)C2)cc1 [Example 4-421] the pIC50 was > 7.00. With O=C(N[C@@H]1CCC[C@H](Nc2cc(C(F)(F)F)nc3ccc(Cl)cc23)C1)c1ccc(F)nc1 [Example 4-411] the pIC50 was > 7.00. For CCCc1nnsc1C(=O)N[C@@H]1CCC[C@H](Nc2cc(C(F)(F)F)nc3ccccc23)C1 (racemic) [Example 4-40], the pIC50 was 5.60 to 6.00. With N#CC1(C(=O)N[C@@H]2CCC[C@H](Nc3cc(C(F)(F)F)nc4ccccc34)C2)CC1 [Example 4-183] the pIC50 was 5.60 to 6.00. O=C(N[C@@H]1CCC[C@H](Nc2cc(C(F)(F)F)nc3ccccc23)C1)c1ccc(F)cc1 [Example 1-8] gave a pIC50 of 6.30 to 7.00. Work on O=C(N[C@@H]1CCC[C@H](Nc2cc(C(F)(F)F)nc3ccc(Cl)cc23)C1)c1cccc(F)c1 [Example 4-239] yielded a pIC50 of 6.30 to 7.00. CC(C)Cc1cc(C(=O)N[C@@H]2CCC[C@H](Nc3cc(C(F)(F)F)nc4ccccc34)C2)n(C)n1 (racemic) [Example 4-90] showed a pIC50 of 5.60 to 6.00. With O=C(N[C@@H]1CCC[C@H](Nc2cc(C(F)(F)F)nc3ccc(Cl)cc23)C1)c1cnc(NCCF)nc1 [Example 4-423] the pIC50 was > 7.00.

System: Human LAD2 cells
Test: Mast Cell Beta-Hexosaminidase Release Assay (500 nM Cortistatin-14)
Type: cell-based
Conditions: read-out: MRGPRX2 Antagonist Activity
Description: Human LAD2 cells (NIH) were maintained in an incubator at 37° C. with 5% CO2 and cultured in StemPro-34 serum-free media (Gibco 10639011) supplemented with 2 mM L-glutamine, 100 U/ml penicillin, […] streptomycin and 100 ng/ml SCF (Invitrogen PEP0860), at a concentration of 2-5×10^5 cells/mL, with hemidepletion every 1-2 weeks.
Cells were transferred to SCF-Free medium at 2.5×10^5 cells/mL and kept in an incubator overnight. On the day of the assay, cells were washed twice in Assay Buffer (final concentrations 10 mM HEPES, 137 mM NaCl, 5.6 mM D-glucose, 2.7 mM KCl, 1 mM MgCl, 1.8 mM CalCl2, 0.4 mM Na2HPO4·7H2O, 0.04% BSA, pH=7.4) and plated in a 96-well v-bottom plate at 20,000 cells per well in 80 μL Assay Buffer. […] After incubation, 50 μL of 400 mM Glycine buffer (pH 10.7) was added into each well and the plate was read on a Molecular Devices SpectraMax iD5 plate reader (absorbance at 405 nm with reference filter at 620 nm). After background subtraction, the percentage degranulation (percent beta-hexosaminidase release) was calculated as 100×(supernatant values)/(supernatant+lysate values), followed by analysis using GraphPad Prism software to calculate an IC50 value for each compound. […]
With N#CCCn1ncc(C(=O)N[C@@H]2CCC[C@H](Nc3cc(C(F)(F)F)nc4ccc(Cl)cc34)C2)c1Cl [Example 4-420] the pIC50 was > 7.00.

System: not listed separately
Test: Mouse Pharmacokinetics Studies
Type: in vivo
Conditions: male, C57BL/6, mouse, plasma, po, 50 mg/kg, male C57BL/6 mice, 50 mg/kg oral gavage, non-fasted, read-out: AUC 0-24
Description: Compounds were formulated in 5% DMSO, 5% Solutol, and 90% PBS without Ca and Mg (pH 7.4) at a concentration of 5 mg/mL. Male C57BL/6 mice (n=3/compound) were administered a 50 mg/kg dose of each compound by oral gavage under a non-fasted condition. Blood samples were collected via the saphenous vein onto K2-EDTA at 0.25, 0.5, 1, 2, 4, 8 and 24 hours after dosing, and plasma was prepared and stored at −80° C. until analysis. Plasma sample preparation for analysis was done by protein precipitation using acetonitrile (including Verapamil as an internal standard) followed by centrifugation. Compound concentrations were determined in extracted plasma using LC-MS/MS relative to a 12 point standard curve covering the 1 to 4000 nM range. Non-compartmental analysis using Phoenix WinNonlin was used to estimate pharmacokinetic parameters including area under the curve, clearance, and half-life. The administered dose was confirmed by analysis of residual dosing material by UPLC-UV relative to a single point calibration sample.
Work on O=C(N[C@@H]1CCC[C@H](Nc2cc(C(F)(F)F)nc3ccc(Cl)cc23)C1)N1CC2(CC2)C1 [Example 6-9] yielded an AUC(0-t) of 43 µM·h.

Same assay, conditions: male, C57BL/6, mouse, plasma, po, 50 mg/kg, male C57BL/6 mice, 50 mg/kg oral gavage, non-fasted, read-out: AUC 0-last
Compound O=C(N[C@@H]1CCC[C@H](Nc2cc(C(F)(F)F)nc3ccc(Cl)cc23)C1)N1CC2(CC2)C1 [Example 6-9] has an AUC(0-t) of 42 µM·h.

Same assay, conditions: mouse; male C57BL/6 mice, 50 mg/kg oral gavage, non-fasted, plasma
For O=C(N[C@@H]1CCC[C@H](Nc2cc(C(F)(F)F)nc3ccc(Cl)cc23)C1)N1CC2(CC2)C1 [Example 6-9], the Cmax was 5.1 µM.

Same assay, conditions: mouse; male C57BL/6 mice, 50 mg/kg oral gavage, non-fasted, plasma; read-out: PK: Tmax
Work on O=C(N[C@@H]1CCC[C@H](Nc2cc(C(F)(F)F)nc3ccc(Cl)cc23)C1)N1CC2(CC2)C1 [Example 6-9] yielded a Tmax of 3.3 h.
